Like-named read-outs stand apart in the source and are kept apart here.
What was measured:
[1] = system: BTK and AKT phosphorylation; assay: Inhibitor washout assay, Mino cells; format: cell-based, human; settings: 1 h treatment, washes with PBS
Procedure: The BCR pathways in the washed cells were stimulated with 10 μg/mL of goat F(ab’)2 anti-human IgM antibody, and the cells were harvested and lysed. The resulting lysates were analyzed by western blot.

JeKo-1 cells [2] = assay: Cell viability assay (alamarBlue / CellTiter-Glo), JeKo-1; format: cell-based; settings: Homo sapiens, JeKo-1, 48 h; read-out: IC50, anti-proliferative activity, JeKo-1
Procedure: (§2) Cells were treated with DMSO (0.1% final) or increasing concentrations of the indicated inhibitors for 48 h. 100 μL of Alamar blue (ThermoFisher Scientific) and Cell titer Glow assay reagent (Promega Cat # G9241) was added to each well, and the cells were incubated for 10 min at room temperature. Luminescence signal was measured in a VarioScan multimode reader. For Alamar Blue, fluorescence signals were read (emission at 590 nm after excitation at 560 nm). Averaged values were normalized as a percentage of DMSO (control) and analyzed by nonlinear regression then plotted for dose response using GraphPad Prism (GraphPad Software, Inc.). Experiments were performed in triplicate.

JeKo-1 BTK C481S cells = assay: Cell viability assay, JeKo-1 BTK C481S; format: cell-based; settings: Homo sapiens, JeKo-1, 48 h
Procedure: as §2

Mino cells [3] = assay: Cell viability assay (alamarBlue / CellTiter-Glo), Mino; format: cell-based; settings: Homo sapiens, 48 h, read-out: IC50, anti-proliferative activity, Mino
Procedure: as §2

[4] = system: relapsed/refractory (R/R) MCL patients; settings: R/R MCL patients treated with Ibrutinib; cited from earlier work
Mino cells [5] = assay: FITC Annexin V apoptosis assay, Mino; format: cell-based, human; settings: 5 μM, 24 h
Procedure: Jeko-1 and Mino cells were seeded at a density of 2x10^6 cells and incubated overnight. […] Cells were harvested and washed twice with cold PBS, and then labeled with Annexin V-FITC and PI (BD Pharmingen, Cat # 556419) or Annexin APC (Thermo Fisher, Cat # A35110) according to the manufacturer’s protocol (BD Pharmingen). The labeled cells were analyzed using BD Accuri C6 Flow cytometer. Experiments were performed in duplicate.

Mino BTK C481S cells = assay: Cell viability assay, Mino BTK C481S; format: cell-based; settings: Homo sapiens, 48 h
Procedure: as §2

JeKo-1 cells [6] = assay: FITC Annexin V apoptosis assay, JeKo-1; format: cell-based, human; settings: JeKo-1, 5 μM, 24 h
Procedure: Jeko-1 and Mino cells were seeded at a density of 2x10^6 cells and incubated overnight. […] The labeled cells were analyzed using BD Accuri C6 Flow cytometer. Experiments were performed in duplicate.

[7] = target: T1, BTK C481S (Ibrutinib-resistant mutant) (Homo sapiens, UniProt Q06187, C481S); assay: Kinase activity assay, BTK C481S; format: biochemical
T1 construct: purchased Reaction Biology (contract assay)
T1 sequence (Q06187 whole entry C481S): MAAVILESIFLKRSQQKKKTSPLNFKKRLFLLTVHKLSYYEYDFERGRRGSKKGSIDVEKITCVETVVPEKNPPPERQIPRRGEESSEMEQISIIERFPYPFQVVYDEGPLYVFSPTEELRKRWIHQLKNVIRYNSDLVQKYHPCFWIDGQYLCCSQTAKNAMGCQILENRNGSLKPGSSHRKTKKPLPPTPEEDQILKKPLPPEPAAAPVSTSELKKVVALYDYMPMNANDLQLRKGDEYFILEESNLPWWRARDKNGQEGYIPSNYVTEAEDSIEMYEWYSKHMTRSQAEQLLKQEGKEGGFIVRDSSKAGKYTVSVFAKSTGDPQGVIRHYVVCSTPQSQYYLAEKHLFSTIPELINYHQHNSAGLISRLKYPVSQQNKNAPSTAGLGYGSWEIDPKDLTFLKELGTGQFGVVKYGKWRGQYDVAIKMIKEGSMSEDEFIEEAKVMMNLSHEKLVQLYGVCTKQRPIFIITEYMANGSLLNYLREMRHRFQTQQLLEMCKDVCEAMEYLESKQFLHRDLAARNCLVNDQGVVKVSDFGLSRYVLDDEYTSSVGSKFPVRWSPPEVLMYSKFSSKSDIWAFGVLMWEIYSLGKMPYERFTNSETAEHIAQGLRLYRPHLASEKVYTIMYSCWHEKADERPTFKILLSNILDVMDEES

PI3Kδ = target: T2, PI3Kδ (Homo sapiens, UniProt O00329); assay: Adapta kinase activity assay, PI3Kδ; format: biochemical
T2 construct: purchased ThermoFisher Scientific (contract assay)
T2 sequence (O00329 whole entry): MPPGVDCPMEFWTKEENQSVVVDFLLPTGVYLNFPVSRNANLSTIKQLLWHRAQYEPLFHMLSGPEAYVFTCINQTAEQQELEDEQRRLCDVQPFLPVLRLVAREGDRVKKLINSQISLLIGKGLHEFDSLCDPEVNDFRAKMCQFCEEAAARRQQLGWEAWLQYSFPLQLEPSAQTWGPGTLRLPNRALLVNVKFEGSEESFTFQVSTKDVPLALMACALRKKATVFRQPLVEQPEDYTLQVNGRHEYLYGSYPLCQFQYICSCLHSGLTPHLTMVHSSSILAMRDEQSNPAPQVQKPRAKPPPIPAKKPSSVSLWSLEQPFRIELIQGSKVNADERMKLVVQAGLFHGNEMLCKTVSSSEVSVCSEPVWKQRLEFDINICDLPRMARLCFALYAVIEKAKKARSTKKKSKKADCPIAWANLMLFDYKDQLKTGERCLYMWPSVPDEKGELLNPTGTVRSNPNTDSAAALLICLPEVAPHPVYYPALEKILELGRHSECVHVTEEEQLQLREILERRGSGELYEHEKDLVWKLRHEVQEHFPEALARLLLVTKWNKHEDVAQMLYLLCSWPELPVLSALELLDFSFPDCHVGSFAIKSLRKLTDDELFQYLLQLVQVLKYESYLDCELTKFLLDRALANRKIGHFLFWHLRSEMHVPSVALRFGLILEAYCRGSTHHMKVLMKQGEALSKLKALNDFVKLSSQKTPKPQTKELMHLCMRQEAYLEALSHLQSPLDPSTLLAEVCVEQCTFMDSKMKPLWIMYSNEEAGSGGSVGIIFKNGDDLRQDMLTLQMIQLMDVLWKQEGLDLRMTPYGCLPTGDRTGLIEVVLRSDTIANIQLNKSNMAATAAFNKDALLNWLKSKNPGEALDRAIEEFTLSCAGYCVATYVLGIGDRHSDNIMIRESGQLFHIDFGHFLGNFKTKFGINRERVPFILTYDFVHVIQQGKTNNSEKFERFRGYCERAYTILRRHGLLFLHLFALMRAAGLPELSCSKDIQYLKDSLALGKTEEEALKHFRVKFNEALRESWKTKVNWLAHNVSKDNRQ
T2 sequence (P27986 whole entry partner): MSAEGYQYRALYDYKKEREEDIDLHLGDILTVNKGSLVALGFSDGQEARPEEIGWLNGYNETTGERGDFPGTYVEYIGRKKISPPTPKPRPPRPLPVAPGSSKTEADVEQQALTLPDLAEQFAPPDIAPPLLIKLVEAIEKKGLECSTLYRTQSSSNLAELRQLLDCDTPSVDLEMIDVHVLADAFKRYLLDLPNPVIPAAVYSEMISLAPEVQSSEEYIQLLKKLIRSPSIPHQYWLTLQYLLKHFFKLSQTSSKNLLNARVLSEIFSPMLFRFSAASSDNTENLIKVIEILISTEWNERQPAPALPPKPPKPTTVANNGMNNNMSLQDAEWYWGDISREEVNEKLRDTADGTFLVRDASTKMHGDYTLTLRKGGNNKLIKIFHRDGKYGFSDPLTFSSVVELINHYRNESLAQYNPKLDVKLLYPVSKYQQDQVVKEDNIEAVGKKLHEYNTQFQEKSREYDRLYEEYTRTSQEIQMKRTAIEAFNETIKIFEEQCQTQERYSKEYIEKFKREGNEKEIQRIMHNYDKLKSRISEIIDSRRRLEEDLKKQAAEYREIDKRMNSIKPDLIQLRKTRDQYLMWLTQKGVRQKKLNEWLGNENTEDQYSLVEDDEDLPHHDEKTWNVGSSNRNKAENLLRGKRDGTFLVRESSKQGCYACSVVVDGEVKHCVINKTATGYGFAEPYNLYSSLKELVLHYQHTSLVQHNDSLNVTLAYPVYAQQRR
Procedure: (§1) Adapta kinase activity assays were carried out by ThermoFisher Scientific (Waltham, MA) to measure IC50 of the indicated inhibitors for PI3K isoforms. Kinase activity assays were carried out by Reaction Biology (Malvern, PA) to measure IC50 of the indicated inhibitors for BTK WT and BTK C481S (Ibrutinib-resistant mutant). Alpha Screen assays were carried out by Reaction Biology (Malvern, PA) to measure IC50 of the indicated inhibitors for His-tagged BRD4 BD1 and BD2 bromodomains.

PI3Kα = target: T3, PI3Kα (Homo sapiens, UniProt P42336); assay: Adapta kinase activity assay, PI3Kα; format: biochemical
T3 construct: purchased ThermoFisher Scientific (contract assay)
T3 sequence (P42336 whole entry): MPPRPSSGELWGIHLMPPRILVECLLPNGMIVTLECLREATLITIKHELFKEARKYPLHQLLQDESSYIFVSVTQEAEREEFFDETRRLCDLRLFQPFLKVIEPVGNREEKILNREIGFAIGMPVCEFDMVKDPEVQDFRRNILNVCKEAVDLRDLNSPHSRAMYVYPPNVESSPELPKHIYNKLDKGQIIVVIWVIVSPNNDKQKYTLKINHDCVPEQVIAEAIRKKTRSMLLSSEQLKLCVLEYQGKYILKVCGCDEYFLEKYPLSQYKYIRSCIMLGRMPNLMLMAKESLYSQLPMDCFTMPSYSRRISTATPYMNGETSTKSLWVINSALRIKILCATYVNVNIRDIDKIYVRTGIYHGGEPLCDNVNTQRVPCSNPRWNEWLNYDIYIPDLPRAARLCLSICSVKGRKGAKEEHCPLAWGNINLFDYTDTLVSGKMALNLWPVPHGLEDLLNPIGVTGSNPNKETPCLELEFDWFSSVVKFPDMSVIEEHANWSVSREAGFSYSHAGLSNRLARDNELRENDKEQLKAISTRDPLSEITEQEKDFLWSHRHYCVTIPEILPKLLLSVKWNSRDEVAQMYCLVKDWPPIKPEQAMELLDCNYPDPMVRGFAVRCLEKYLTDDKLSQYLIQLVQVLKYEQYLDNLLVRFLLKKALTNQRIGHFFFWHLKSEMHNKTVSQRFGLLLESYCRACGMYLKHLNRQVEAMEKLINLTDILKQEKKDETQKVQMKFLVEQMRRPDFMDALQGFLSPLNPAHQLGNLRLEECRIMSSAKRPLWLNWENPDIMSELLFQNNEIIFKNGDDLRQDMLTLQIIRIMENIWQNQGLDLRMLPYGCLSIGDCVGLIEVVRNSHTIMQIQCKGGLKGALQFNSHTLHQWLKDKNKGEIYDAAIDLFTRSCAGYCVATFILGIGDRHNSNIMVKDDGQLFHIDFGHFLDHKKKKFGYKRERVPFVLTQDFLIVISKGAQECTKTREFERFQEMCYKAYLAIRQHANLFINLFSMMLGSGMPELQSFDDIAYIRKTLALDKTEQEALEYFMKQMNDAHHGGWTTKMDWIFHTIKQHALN
T3 sequence (P27986 whole entry partner): as the sequence (P27986 whole entry partner) above
Procedure: as §1

PI3Kγ = target: T4, PI3Kγ (Homo sapiens, UniProt P48736); assay: Adapta kinase activity assay, PI3Kγ; format: biochemical
T4 construct: purchased ThermoFisher Scientific (contract assay)
T4 sequence (P48736 whole entry): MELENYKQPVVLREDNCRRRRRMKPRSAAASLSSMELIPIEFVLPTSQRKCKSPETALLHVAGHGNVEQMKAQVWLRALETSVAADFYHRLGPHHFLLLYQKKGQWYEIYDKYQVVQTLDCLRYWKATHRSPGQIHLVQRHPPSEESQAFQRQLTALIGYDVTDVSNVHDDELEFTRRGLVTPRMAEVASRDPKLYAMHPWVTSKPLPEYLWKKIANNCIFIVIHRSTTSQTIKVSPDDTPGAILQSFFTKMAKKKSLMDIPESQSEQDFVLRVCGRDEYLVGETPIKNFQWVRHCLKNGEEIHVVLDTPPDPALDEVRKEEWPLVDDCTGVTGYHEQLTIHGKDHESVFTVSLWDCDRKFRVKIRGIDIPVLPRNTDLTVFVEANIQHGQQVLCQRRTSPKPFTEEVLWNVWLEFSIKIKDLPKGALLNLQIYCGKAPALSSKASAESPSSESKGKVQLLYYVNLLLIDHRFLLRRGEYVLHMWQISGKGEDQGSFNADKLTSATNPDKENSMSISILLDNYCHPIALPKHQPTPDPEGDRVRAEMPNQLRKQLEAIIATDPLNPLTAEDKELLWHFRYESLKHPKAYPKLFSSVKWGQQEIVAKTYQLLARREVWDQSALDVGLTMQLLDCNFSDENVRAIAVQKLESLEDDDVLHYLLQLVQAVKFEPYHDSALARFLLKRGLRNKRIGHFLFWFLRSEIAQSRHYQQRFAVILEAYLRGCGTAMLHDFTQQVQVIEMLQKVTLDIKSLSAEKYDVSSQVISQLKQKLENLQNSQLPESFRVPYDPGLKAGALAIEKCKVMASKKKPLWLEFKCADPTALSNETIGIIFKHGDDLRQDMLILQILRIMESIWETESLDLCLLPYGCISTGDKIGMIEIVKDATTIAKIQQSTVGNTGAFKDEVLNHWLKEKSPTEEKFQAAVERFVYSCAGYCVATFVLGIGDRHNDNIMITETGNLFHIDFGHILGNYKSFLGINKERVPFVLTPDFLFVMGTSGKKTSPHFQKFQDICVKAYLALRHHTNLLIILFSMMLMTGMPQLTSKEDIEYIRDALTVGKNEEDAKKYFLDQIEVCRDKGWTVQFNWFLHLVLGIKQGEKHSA
Procedure: as §1

BTK WT = target: T5, BTK WT (Homo sapiens, UniProt Q06187); assay: Kinase activity assay, BTK WT; format: biochemical
T5 construct: purchased Reaction Biology (contract assay)
T5 sequence (Q06187 whole entry): as the sequence (Q06187 whole entry C481S) above, with S481C counted along it

Question: For `Cc1c(-c2ccc(C(N)=O)c3[nH]c4cc(C(C)(C)O)ccc4c23)cccc1-n1cnc2ccccc2c1=O` [BMS-935177], which “BTK phosphorylation after inhibitor wash out” value [1] is on record?
Answer: regained BTK phosphorylation

Question: With `C=CC(=O)N1CCC[C@@H](n2nc(-c3ccc(Oc4ccccc4)cc3)c3c(N)ncnc32)C1` [Ibrutinib] as the compound, how does the “BTK phosphorylation after inhibitor wash out” value [1] read?
Answer: retained inhibition of BTK phosphorylation

Question: And the IC50 (JeKo-1 cells [2])?
Answer: 24.8 µM

Question: What about the IC50 (JeKo-1 BTK C481S cells; read-out: IC50, JeKo-1 BTK C481S) of the same compound?
Answer: 38 µM

Question: What about the IC50 (JeKo-1 BTK C481S cells; read-out: IC50, anti-proliferative activity, JeKo-1 BTK C481S) of the same compound?
Answer: 38.4 µM

Question: What about the IC50 (Mino cells [3]) of the same compound?
Answer: 2.44 µM

Question: What about the “median progression free survival” value [4] of the same compound?
Answer: ~ 14 months

Question: And the overall response rate [4]?
Answer: 68%

Question: And the “patients reaching a complete response” value [4]?
Answer: 21%

Question: What about the “apoptosis (Annexin V and propidium incorporation)” value (Mino cells [5]) of the same compound?
Answer: mild effect

Question: What about the IC50 (Mino BTK C481S cells; read-out: IC50, Mino BTK C481S) of the same compound?
Answer: 6 µM

Question: And the IC50 (Mino BTK C481S cells; read-out: IC50, anti-proliferative activity, Mino BTK C481S)?
Answer: 6.36 µM

Question: What about the “apoptosis (Annexin V and propidium incorporation)” value (JeKo-1 cells [6]) of the same compound?
Answer: no significant effect

Question: With `Cc1sc2c(c1C)C(c1ccc(Cl)cc1)=N[C@@H](CC(=O)OC(C)(C)C)c1nnc(C)n1-2` [JQ1] as the compound, how does the “IC50, BTK C481S” value [7] read?
Answer: no activity

Question: And the IC50 (PI3Kδ)?
Answer: > 50 µM

Question: What about the IC50 (PI3Kα) of the same compound?
Answer: > 50 µM

Question: And the IC50 (PI3Kγ)?
Answer: > 50 µM

Question: What about the “IC50, BTK WT” value (BTK WT) of the same compound?
Answer: no activity

Question: For `CN[C@@H]1C[C@H]2O[C@@](C)([C@@H]1OC)n1c3ccccc3c3c4c(c5c6ccccc6n2c5c31)C(=O)NC4` [Staurosporine], which “IC50, PI3Kδ” value (PI3Kδ) is on record?
Answer: no activity

Question: And the “IC50, PI3Kα” value (PI3Kα)?
Answer: no activity

Question: What about the “IC50, PI3Kγ” value (PI3Kγ) of the same compound?
Answer: no activity
